Results published in the supplement of paper PMC10307832.

Key:
Experiment in all cases: relative viability (nuclei count vs DMSO), 5 days (fraction); higher = more cells survive
[1] = compound: C=CCc1cccc(/C=N/NC(=O)CN2CCN(Cc3ccccc3)CC2)c1O [PAC-1] + CCNC(=O)c1noc(-c2cc(C(C)C)c(O)cc2O)c1-c1ccc(CN2CCOCC2)cc1 [Luminespib] (partner 0.01 µM)
How it was run: (§1)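 Relative viability is defined as nuclei in treated wells over nuclei in vehicle wells. Duplicate plates were run and medians reported. Lung cancer cell lines in 1536-well plates were dosed by pin tool one day after seeding, with one drug or with a fixed anchor-drug dose plus five library-drug doses (not always all listed) in √10 steps, and nuclei were counted after 5 days.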

[2] = compound: C=CC(=O)Nc1cc(-n2c(=O)ccc3cnc4ccc(-c5ccc(NS(C)(=O)=O)cc5)cc4c32)ccc1C [BMX-IN-1] + CC(=O)Nc1cccc(-n2c(=O)n(C3CC3)c(=O)c3c(Nc4ccc(I)cc4F)n(C)c(=O)c(C)c32)c1 [Trametinib] (partner 0.02 µM)
How it was run: as §1

[3] = compound: C=CC(=O)Nc1cc(-n2c(=O)ccc3cnc4ccc(-c5ccc(NS(C)(=O)=O)cc5)cc4c32)ccc1C [BMX-IN-1] + CS(=O)(=O)N1CCN(Cc2cc3nc(-c4cccc5[nH]ncc45)nc(N4CCOCC4)c3s2)CC1 [Pictilisib] (partner 1 µM)
How it was run: as §1

[4] = compound: C=CC(=O)N1CCC[C@@H](n2nc(-c3ccc(Oc4ccccc4)cc3)c3c(N)ncnc32)C1 [Ibrutinib] + CS(=O)(=O)CCNCc1ccc(-c2ccc3ncnc(Nc4ccc(OCc5cccc(F)c5)c(Cl)c4)c3c2)o1 [Lapatinib] (partner 2 µM)
How it was run: as §1

In the case of NCI-H322M, the relative viability ([1]; first compound 0.02 µM) is reported as 0.812, the relative viability ([1]; first compound 0.06325 µM) is reported as 0.832 and the relative viability ([1]; first compound 0.2 µM) is reported as 0.848. The relative viability ([1]; first compound 2 µM) was 0.775, the relative viability ([2]; first compound 0.02 µM) was 0.501 and the relative viability ([2]; first compound 0.2 µM) was 0.504. For the same cell line, the relative viability ([2]; first compound 0.6325 µM) was 0.532, the relative viability ([2]; first compound 2 µM) was 0.443 and the relative viability ([3]; first compound 0.02 µM) was 0.558. It also gave a relative viability ([3]; first compound 0.2 µM) of 0.505, a relative viability ([3]; first compound 0.6325 µM) of 0.532 and a relative viability ([3]; first compound 2 µM) of 0.583. The relative viability ([4]; first compound 0.005 µM) was 0.527, the relative viability ([4]; first compound 0.01581 µM) was 0.652 and the relative viability ([4]; first compound 0.05 µM) was 0.621. The relative viability ([4]; first compound 0.1581 µM) was 0.512 and the relative viability ([4]; first compound 0.5 µM) was 0.585.

NCI-H358 was tested, and the relative viability ([1]; first compound 0.02 µM) was 0.411, the relative viability ([1]; first compound 0.06325 µM) was 0.404 and the relative viability ([1]; first compound 0.2 µM) was 0.32. For the same cell line, the relative viability ([1]; first compound 2 µM) was 0.265, the relative viability ([2]; first compound 0.02 µM) was 0.119 and the relative viability ([2]; first compound 0.2 µM) was 0.124. It also gave a relative viability ([2]; first compound 0.6325 µM) of 0.127, a relative viability ([2]; first compound 2 µM) of 0.123 and a relative viability ([3]; first compound 0.02 µM) of 0.387. The relative viability ([3]; first compound 0.2 µM) was 0.313, the relative viability ([3]; first compound 0.6325 µM) was 0.393 and the relative viability ([3]; first compound 2 µM) was 0.336. It also gave a relative viability ([4]; first compound 0.005 µM) of 0.403, a relative viability ([4]; first compound 0.01581 µM) of 0.466 and a relative viability ([4]; first compound 0.05 µM) of 0.475. The relative viability ([4]; first compound 0.1581 µM) was 0.406 and the relative viability ([4]; first compound 0.5 µM) was 0.43.

NCI-H441 gave a relative viability ([1]; first compound 0.02 µM) of 0.285, a relative viability ([1]; first compound 0.06325 µM) of 0.254 and a relative viability ([1]; first compound 0.2 µM) of 0.471. For the same cell line, the relative viability ([1]; first compound 2 µM) was 0.335, the relative viability ([2]; first compound 0.02 µM) was 0.451 and the relative viability ([2]; first compound 0.2 µM) was 0.53. It also gave a relative viability ([2]; first compound 0.6325 µM) of 0.613, a relative viability ([2]; first compound 2 µM) of 0.548 and a relative viability ([3]; first compound 0.02 µM) of 0.461. For the same cell line, the relative viability ([3]; first compound 0.2 µM) was 0.618, the relative viability ([3]; first compound 0.6325 µM) was 0.491 and the relative viability ([3]; first compound 2 µM) was 0.606.

Cell Line NCI-H460 has a relative viability ([1]; first compound 0.02 µM) of 0.035, a relative viability ([1]; first compound 0.06325 µM) of 0.0314 and a relative viability ([1]; first compound 0.2 µM) of 0.0281. The relative viability ([1]; first compound 2 µM) was 0.0281, the relative viability ([2]; first compound 0.02 µM) was 0.131 and the relative viability ([2]; first compound 0.2 µM) was 0.136. For the same cell line, the relative viability ([2]; first compound 0.6325 µM) was 0.236, the relative viability ([2]; first compound 2 µM) was 0.181 and the relative viability ([3]; first compound 0.02 µM) was 0.376. For the same cell line, the relative viability ([3]; first compound 0.2 µM) was 0.511, the relative viability ([3]; first compound 0.6325 µM) was 0.371 and the relative viability ([3]; first compound 2 µM) was 0.501. For the same cell line, the relative viability ([4]; first compound 0.005 µM) was 1.18, the relative viability ([4]; first compound 0.01581 µM) was 0.892 and the relative viability ([4]; first compound 0.05 µM) was 0.96. It also gave a relative viability ([4]; first compound 0.1581 µM) of 0.94 and a relative viability ([4]; first compound 0.5 µM) of 1.11.

NCI-H520 gave a relative viability ([1]; first compound 0.02 µM) of 0.269, a relative viability ([1]; first compound 0.06325 µM) of 0.248 and a relative viability ([1]; first compound 0.2 µM) of 0.252. The relative viability ([1]; first compound 2 µM) was 0.216, the relative viability ([2]; first compound 0.02 µM) was 0.892 and the relative viability ([2]; first compound 0.2 µM) was 0.721. The relative viability ([2]; first compound 0.6325 µM) was 0.741, the relative viability ([2]; first compound 2 µM) was 0.733 and the relative viability ([3]; first compound 0.02 µM) was 0.376. The relative viability ([3]; first compound 0.2 µM) was 0.299, the relative viability ([3]; first compound 0.6325 µM) was 0.304 and the relative viability ([3]; first compound 2 µM) was 0.278. It also gave a relative viability ([4]; first compound 0.005 µM) of 0.788, a relative viability ([4]; first compound 0.01581 µM) of 0.789 and a relative viability ([4]; first compound 0.05 µM) of 0.934. The relative viability ([4]; first compound 0.1581 µM) was 0.907 and the relative viability ([4]; first compound 0.5 µM) was 0.78.

For NCI-H522, the relative viability ([1]; first compound 0.02 µM) was 1.15, the relative viability ([1]; first compound 0.06325 µM) was 1.06 and the relative viability ([1]; first compound 0.2 µM) was 0.975. For the same cell line, the relative viability ([1]; first compound 2 µM) was 1.17, the relative viability ([2]; first compound 0.02 µM) was 0.687 and the relative viability ([2]; first compound 0.2 µM) was 0.805. It also gave a relative viability ([2]; first compound 0.6325 µM) of 0.728 and a relative viability ([2]; first compound 2 µM) of 0.744.

NCI-H596 showed a relative viability ([1]; first compound 0.02 µM) of 0.913, a relative viability ([1]; first compound 0.06325 µM) of 0.975 and a relative viability ([1]; first compound 0.2 µM) of 0.929. It also gave a relative viability ([1]; first compound 2 µM) of 1.08, a relative viability ([2]; first compound 0.02 µM) of 0.718 and a relative viability ([2]; first compound 0.2 µM) of 0.912. For the same cell line, the relative viability ([2]; first compound 0.6325 µM) was 0.652, the relative viability ([2]; first compound 2 µM) was 0.825 and the relative viability ([3]; first compound 0.02 µM) was 0.382. The relative viability ([3]; first compound 0.2 µM) was 0.379, the relative viability ([3]; first compound 0.6325 µM) was 0.405 and the relative viability ([3]; first compound 2 µM) was 0.343. It also gave a relative viability ([4]; first compound 0.005 µM) of 1.86, a relative viability ([4]; first compound 0.01581 µM) of 1.1 and a relative viability ([4]; first compound 0.05 µM) of 1.02. For the same cell line, the relative viability ([4]; first compound 0.1581 µM) was 0.988 and the relative viability ([4]; first compound 0.5 µM) was 1.08.

In the case of NCI-H1299, the relative viability ([3]; first compound 0.02 µM) is reported as 0.838, the relative viability ([3]; first compound 0.2 µM) is reported as 0.934 and the relative viability ([3]; first compound 0.6325 µM) is reported as 0.906. For the same cell line, the relative viability ([3]; first compound 2 µM) was 0.563, the relative viability ([4]; first compound 0.005 µM) was 0.973 and the relative viability ([4]; first compound 0.01581 µM) was 0.984. The relative viability ([4]; first compound 0.05 µM) was 0.977, the relative viability ([4]; first compound 0.1581 µM) was 0.979 and the relative viability ([4]; first compound 0.5 µM) was 0.969.

Work on NCI-H1563 yielded a relative viability ([1]; first compound 0.02 µM) of 0.49, a relative viability ([1]; first compound 0.06325 µM) of 0.542 and a relative viability ([1]; first compound 0.2 µM) of 0.505. For the same cell line, the relative viability ([1]; first compound 2 µM) was 0.511, the relative viability ([3]; first compound 0.02 µM) was 0.601 and the relative viability ([3]; first compound 0.2 µM) was 0.629. It also gave a relative viability ([3]; first compound 0.6325 µM) of 0.655, a relative viability ([3]; first compound 2 µM) of 0.684 and a relative viability ([4]; first compound 0.005 µM) of 0.867. The relative viability ([4]; first compound 0.01581 µM) was 0.866, the relative viability ([4]; first compound 0.05 µM) was 0.959 and the relative viability ([4]; first compound 0.1581 µM) was 0.945. For the same cell line, the relative viability ([4]; first compound 0.5 µM) was 1.02.

NCI-H1623 showed a relative viability ([1]; first compound 0.02 µM) of 0.465, a relative viability ([1]; first compound 0.06325 µM) of 0.473 and a relative viability ([1]; first compound 0.2 µM) of 0.515. For the same cell line, the relative viability ([1]; first compound 2 µM) was 0.499.

For NCI-H1648, the relative viability ([2]; first compound 0.02 µM) was 0.435, the relative viability ([2]; first compound 0.2 µM) was 0.585 and the relative viability ([2]; first compound 0.6325 µM) was 0.469. The relative viability ([2]; first compound 2 µM) was 0.495.

In the case of NCI-H1703, the relative viability ([3]; first compound 0.02 µM) is reported as 0.248, the relative viability ([3]; first compound 0.2 µM) is reported as 0.265 and the relative viability ([3]; first compound 0.6325 µM) is reported as 0.248. For the same cell line, the relative viability ([3]; first compound 2 µM) was 0.225, the relative viability ([4]; first compound 0.05 µM) was 1.06 and the relative viability ([4]; first compound 0.1581 µM) was 1.16. For the same cell line, the relative viability ([4]; first compound 0.5 µM) was 0.684.

Work on NCI-H2342 yielded a relative viability ([1]; first compound 0.02 µM) of 0.655, a relative viability ([1]; first compound 0.06325 µM) of 0.82 and a relative viability ([1]; first compound 0.2 µM) of 0.759. For the same cell line, the relative viability ([1]; first compound 2 µM) was 0.777, the relative viability ([2]; first compound 0.02 µM) was 0.834 and the relative viability ([2]; first compound 0.2 µM) was 0.768. For the same cell line, the relative viability ([2]; first compound 0.6325 µM) was 0.85 and the relative viability ([2]; first compound 2 µM) was 0.791.

SW 900 showed a relative viability ([1]; first compound 0.02 µM) of 0.173, a relative viability ([1]; first compound 0.06325 µM) of 0.157 and a relative viability ([1]; first compound 0.2 µM) of 0.16. For the same cell line, the relative viability ([1]; first compound 2 µM) was 0.214, the relative viability ([2]; first compound 0.02 µM) was 1.12 and the relative viability ([2]; first compound 0.2 µM) was 0.831. For the same cell line, the relative viability ([2]; first compound 0.6325 µM) was 0.816 and the relative viability ([2]; first compound 2 µM) was 0.807.
